Patent US20030109468A1, “Novel compounds that enhance dimerization of the subunits of HIV-1 reverse transcriptase having mutations associated with resistance to nonnucleoside reverse transcriptase inhibitors” (priority 2001, published 2003)
“Also recorded” adds a separate entry of the source. Like-named read-outs stand apart in the source and are kept apart here.

What was measured:
[1] = target: p66W401A-His and GST-p51W401A (Human immunodeficiency virus type 1 group M subtype B, UniProt P12497, W988A); test: In vitro heterodimerization in bacterial lysates, W401A mutant
Method: The heterodimerization of bacterially expressed wild-type p66-His and GST-p51 (or mutants) was assessed in bacterial lysates as described previously (22). […] Lysates were washed 4 times with lysis buffer using a centricon-YM-50 filter device (Millipore Corporation, Bedford, Mass.) to remove unbound drug. 5 μg of the corresponding RT subunit was applied to the washed lysates (in 500 μl) and incubated for 1.5 hr at 40C. Heterodimers were captured onto beads (22), resolved by SDS/PAGE and detected using RT antibodies (monoclonal antibody 5B2) (31).

[2] = target: T1, lexA87-66W401A and Gal4AD-HA-51W401A (Human immunodeficiency virus type 1 group M subtype B, UniProt P12497, W988A); test: Coimmunoprecipitation of p66 and p51 in yeast lysates, W401A mutant; format: cell-based, HIV-1
T1 construct: p66 corresponds to codons 1-560 and p51 corresponds to codons 1-440 in the RT gene; expressed in transfected cells; host or cells: Saccharomyces cerevisiae CTY10-5d
Excerpt: […]; Preparation of protein extracts and immunoprecipitation were as previously described (30) except for the use of anti-HA.11 monoclonal antibodies (clone 16B12; Covance, Princeton, N.J.) and Protein G-PLUS agarose beads (Santa Cruz Biotechnology; Santa Cruz, Calif.). Samples were resolved by SDS-PAGE. The lexA87-66 fusion protein was probed using monoclonal antibodies 7E5 which specifically detects p66 (31).
To directly test for induced heterodimerization by NNRTIs we subjected lysates from yeast expressing dimerization defective mutants to coimmunoprecipitation. […]. Hemagglutinin (HA) antibodies were used to immunoprecipitate the p51 prey and the presence of any bound p66 bait was then detected using anti-p66 specific antibodies. For coimmunoprecipitation of the p66 bait fusions, samples were divided into two with one part processed without added NNRTI while the other was maintained in drug at the same concentration used during growth of yeast. […] […].

[3] = target: T2, HIV-1 RT p66 bait and p51 prey fusions with the W401A change (Human immunodeficiency virus type 1 group M subtype B, UniProt P12497, W988A); format: cell-based; settings: W401A in one or both subunits
T2 construct: p66 corresponds to codons 1-560 and p51 corresponds to codons 1-440 in the RT gene; expressed in transfected cells; host or cells: Saccharomyces cerevisiae CTY10-5d
Method: (§1) CTY10-5d transformed constructs expressing p66 bait and p51 prey fusions were grown overnight to stationary phase in synthetic complete medium without histidine and leucine and containing 2% glucose (SC-His-Leu). […] Yeast were grown with aeration at 30° C. to OD600=0.5. The equivalent of 1 OD600 unit was pelleted for each treatment and subjected to a quantitative _-gal liquid assay.

[4] = target: lexA87-66Y181C and wild type Gal4AD-51 (Human immunodeficiency virus type 1 group M subtype B, UniProt P12497, Y768C); format: cell-based, HIV-1; settings: yeast grown in the presence of drug
Method: as §1

RT heterodimer = target: T3, RT heterodimer (Human immunodeficiency virus type 1 group M subtype B, UniProt P12497); settings: cited from earlier work
T3 construct: The HIV-1 RT is an asymmetric dimer consisting of p66 and p51 polypeptides

lexA87 and Gal4AD = test: Y2H specificity control, empty vectors pSH21 and pGADNOT; format: cell-based; settings: serial dilutions, even in the presence of 15 μM of drug
Excerpt: (§2) The specificity of the β-gal enhancement by NNRTIs was investigated. […].

[5] = tested on: moloney murine leukemia virus reverse transcriptase with elongation factor release factor 1 and other unrelated pairs; test: Y2H specificity control, unrelated protein-protein interaction pairs; format: cell-based
Excerpt: as §2

[6] = target: T4, lexA87-66L234A and Gal4AD-HA-51L234A (Human immunodeficiency virus type 1 group M subtype B, UniProt P04585, L821A); format: cell-based, HIV-1; settings: yeast grown with efavirenz 1.6 μM or UC781 16 μM, compared to no drug
T4 construct: p66 corresponds to codons 1-560 and p51 corresponds to codons 1-440 in the RT gene; expressed in transfected cells; host or cells: Saccharomyces cerevisiae CTY10-5d
Excerpt: Samples were resolved by SDS-PAGE.
Hemagglutinin (HA) antibodies were used to immunoprecipitate the p51 prey and the presence of any bound p66 bait was then detected using anti-p66 specific antibodies. For coimmunoprecipitation of the p66 bait fusions, samples were divided into two with one part processed without added NNRTI while the other was maintained in drug at the same concentration used during growth of yeast.

HIV-1 = settings: cited from earlier work
[7] = target: T5, HIV-1 RT p66 bait and p51 prey fusions with the L234A change (Human immunodeficiency virus type 1 group M subtype B, UniProt P04585, L821A); format: cell-based; settings: L234A in one or both subunits
T5 construct: p66 corresponds to codons 1-560 and p51 corresponds to codons 1-440 in the RT gene; expressed in transfected cells; host or cells: Saccharomyces cerevisiae CTY10-5d
Method: as §1

[8] = target: T6, lexA87-66 and Gal4AD-51 (p66 and p51 subunits of the HIV-1 RT) (Human immunodeficiency virus type 1 group M subtype B, UniProt P12497); format: cell-based
T6 construct: p66 corresponds to codons 1-560 and p51 corresponds to codons 1-440 in the RT gene; expressed in transfected cells; host or cells: Saccharomyces cerevisiae CTY10-5d
Method: Transformation of yeast and the qualitative β-galactosidase (β-gal) colony lift assay were as published (19). Quantification of protein-protein interactions was determined using the β-gal liquid assay performed on permeabilized yeast grown from three independent transformants using orthonitrophenyl-β-D-galactopyranoside as substrate (19).
as §1
To test the effects of NNRTIs on the association of the RT polypeptides we used a yeast genetic assay that measures RT heterodimerization (22). In this assay yeast expressing the p66 subunit of the HIV-1 RT fused to the C-terminus of lexa 87 (lexA87-66) and the p51 subunit fused to the Gal4AD (Gal4AD-51) constitutively interact, resulting in the activation of the expression from an integrated Lac Z reporter gene. To test for the effects of the NNRTIs on this interaction, 10 drugs representing 7 different NNRTI classes were added to the culture medium during growth of the yeast and β-gal levels were determined.

p66-His and GST-p51 = target: T7, p66-His and GST-p51 (Human immunodeficiency virus type 1 group M subtype B, UniProt P04585); format: binding, HIV-1
T7 construct: p66 corresponds to codons 1-560 and p51 corresponds to codons 1-440 in the RT gene; made in house; host or cells: E. coli M15 (p66-His) and BL21 (GST-p51), unpurified lysates
Method: Plasmids expressing wild-type and p66 mutants with a histidine tag at the C-terminus (p66-His) were constructed by cloning the p66 coding region into the SphI -BglII site of pQE-70 (Qiagen, Chatsworth, Calif.). […] Glutathione S-transferase tagged p51 (GST-p51) was prepared by subcloning the BamHI-SalI fragment from p51HXGADNOT into pGEX5X-3 (Amersham Pharmacia). Cells were induced and then lysed by the addition of 1 mg/ml of lysozyme to 1 ml of lysis buffer [50 mM sodium phosphate buffer (pH 7.8), 500 mM NaCl, 0.5% Nonidet P-40, 5 mM DTT, and 1 μg/ml each of pepstatin A, aprotinin and leupeptin] and clarified. Lysates were combined and incubated for 16 hrs at 4° C. The heterodimer was captured on Glutathione Sepharose 4B beads and unbound subunits were removed by washing with lysis buffer. Heterodimer bound to beads were resolved by SDS/PAGE. For quantification of RT activity, dimers were eluted from beads with 10 mM reduced glutathione in 50 mM Tris (pH 8.0). Samples were assayed for DNA polymerase activity on homopolymeric template-primers for various times, and the activity was determined from the initial slope of the linear phase of the time course.

p66/p51 heterodimer = target: T8, p66/p51 heterodimer (Human immunodeficiency virus type 1 group M subtype B, UniProt P12497); settings: cited from earlier work
T8 construct: The HIV-1 RT is an asymmetric dimer consisting of p66 and p51 polypeptides

HIV-1 RT = HIV-1 RT (Human immunodeficiency virus type 1 group M subtype B, UniProt P12497); format: biochemical; settings: exogenous RT assay, results not shown
[9] = target: HIV-1 RT with Y181C mutation in the p66 subunit (Human immunodeficiency virus type 1 group M subtype B, UniProt P12497, Y768C); settings: cited from earlier work
[10] = yeast expressing lexA87-66 and Gal4AD-51 grown with drug
[11] = bacterial lysates, overnight at 4° C.

With `O=C1Nc2ccc(Cl)cc2[C@@](C#CC2CC2)(C(F)(F)F)O1` [efavirenz, (S)6-chloro-4(cyclopropylethynyl)-1,4-dihydro-4-(trifluoromethyl)-2H-3,1-benzoxazin-2-one] the “molar excess of drug giving a significant increase in dimer formation, W401A” value [1] was 10 fold molar excess, the “heterodimer in lysates of yeast grown without drug, drug added during coimmunoprecipitation, W401A” value [2] was “significantly more heterodimer present” and the “p66 bait coimmunoprecipitated with p51 prey, W401A” value [2] was “clear increase”. For the same molecule, the “enhancement of β-gal activity, W401A mutant, in words” value [3] was “dramatic increase in β-gal activity”, the “β-gal enhancement with Y181C in the p66 bait” value [4] was “significant level of β-gal enhancement was still retained” and the “binding to the RT heterodimer” value (RT heterodimer) was “bind very tightly”. The “increase in β-gal activity, empty vectors” value (lexA87 and Gal4AD) was “no increase in β-gal activity” and the “effect on β-gal activity of unrelated protein-protein interaction pairs” value [5] was “no enhancement or inhibition of β-gal activity”.
In the case of `CC(C)=CCOc1cc(NC(=S)c2ccoc2C)ccc1Cl` [UC781, N-[4-chloro-3-(3-methyl-2-butenyloxy)phenyl]-2-methyl-3-furancarbothioamide], the “p66 bait coimmunoprecipitated with p51 prey, L234A” value [6] is given as “not for the L234A mutant”, the “p66 bait coimmunoprecipitated with p51 prey, W401A” value ([2]; yeast grown with efavirenz 1.6 μM or UC781 16 μM, compared to no drug) is given as “heterodimer formation” and the “inhibition of HIV-1 replication in vitro” value (HIV-1) is given as “extremely potent inhibitors”. For the same molecule, the “enhancement of β-gal activity, L234A mutant, in words” value [7] was “no enhancement”, the “enhancement of β-gal activity, W401A mutant, in words” value [3] was “could also enhance the β-gal activity” and the “binding to the RT heterodimer” value (RT heterodimer) was “bind very tightly”. For the same molecule, the “dissociation rates (Koff)” value (RT heterodimer) was “very slow dissociation rates”, the “enhancement of β-gal activity, in words / relative potency” value [8, 10] was “second most potent drug” and the “enhancement of dimerization of GST-p51 and p66-His in vitro, in words” value (“enhancement of dimerization … in words” for short) (p66-His and GST-p51; [11]) was “poor dimerization inducers”.
For “2′,5′-bis-O-(tert-butylidimethylsilyl) -3′-spiro-5″-4″-amino-1″,2″-oxothiole-2″,2″-dioxide)]-b-D- pentofuranosyl [TSAO]”, the “destabilization of the p66/p51 heterodimer” value (p66/p51 heterodimer) is listed as “destabilization of the p66/p51 heterodimer; also recorded: destabilize the p66/p51 heterodimer”, the “inhibition of β-gal activity in the Y2H system” value ([8]; preliminary tests, data not shown, uptake by yeast not ruled in) is listed as “no inhibition of β-gal activity” and the “effect on heterodimerization in in vitro binding assays” value (p66-His and GST-p51; preliminary tests, data not shown) is listed as “reduce heterodimerization”.
For `COc1ccc2c(c1)N(C(=O)OC(C)C)[C@@H](CSC)C(=S)N2` [HBY 097, (S)-4-isopropoxycarbonyl-6-methoxy-3-(methylthiomethyl)-3,4-dihydroquinoxaline-2(1H)-thione], the “inhibition of HIV-1 replication in vitro” value (HIV-1) is given as “extremely potent inhibitors” and the “enhancement of β-gal activity, in words / relative potency” value [8, 10] is given as “most potent”.
For `Cc1occc1C(=S)Nc1ccc(Cl)c(/C=N/OC(C)(C)C)c1` [UC10], the “enhancement of dimerization … in words” value (p66-His and GST-p51; [11]) was “poor dimerization inducers”.
With `CC(C)Nc1cccnc1N1CCN(C(=O)c2cc3cc(NS(C)(=O)=O)ccc3[nH]2)CC1` [delavirdine, piperazine, 1-[3-[(1-methyl-ethyl)amino]-2-pyridinyl]-4-[[5-[(methysulfonyl)amino]-1H-indol-2-yl]carbonyl]-, monomethanesulfonate] the “enhancement of β-gal activity, in words / relative potency” value [8] was “devoid of P-gal enhancing activity” and the “enhancement of dimerization … in words” value (p66-His and GST-p51) was “inactive in vitro”.
For `CC(C)OC(=O)c1cc(NC(=S)OC(C)C)ccc1Cl` [UC38], the “RT inhibitory activity (50% inhibitory concentration), rank” value (HIV-1 RT) was “least active” and the “concentration of drug that mediates a 5-fold increase in β-gal activity, rank” value ([8]; Y2H assay, results not shown) was “least active”.
In the case of `CCn1c(=O)c(C)cn([C@@H]2O[C@H](CO[Si](C)(C)C(C)(C)C)C3(OS(=O)(=O)C=C3N)[C@H]2O[Si](C)(C)C(C)(C)C)c1=O` (stereo partly drawn) [TSAOe^3T], the “destabilization of the p66/p51 heterodimer” value (p66/p51 heterodimer) is given as “more modest destabilization only detectable in the presence of denaturants”.
In the case of `Cc1ccnc2c1NC(=O)c1cccnc1N2C1CC1` [nevirapine, 11-cyclopropyl-5,11,-dihydro-4-methyl-6H-dipyrido[3,2-b:2′3′-][1,4] diazepin-6-one], the “β-gal enhancement with Y181C in the p66 bait” value [4] is listed as “totally negated the enhancement effect” and the “increase in resistance conferred by Y181C” value [9] is listed as over 100 fold.
